Parameters in all cases: scale not given: the % may be the effect or the level left
Experiment [1] deals with Prothrombin (Homo sapiens) (UniProt P00734). Put plainly: Compound was evaluated for its inhibitory activity against thrombin at 100 uM concentration of substrate.
The target in experiment [2] is Urokinase-type plasminogen activator (Homo sapiens) (UniProt P00749). The experiment can be described thus: Compound was evaluated for its inhibitory activity against urokinase at 100 uM concentration of substrate.
In experiment [3] the target is Cathepsin B (Homo sapiens) (UniProt P07858). Put plainly: Compound was evaluated for its inhibitory activity against cathepsin B at 100 uM concentration of substrate.
Experiment [4] has as its target T1, Neutrophil elastase (Homo sapiens) (UniProt P08246).
T1 sequence (whole entry): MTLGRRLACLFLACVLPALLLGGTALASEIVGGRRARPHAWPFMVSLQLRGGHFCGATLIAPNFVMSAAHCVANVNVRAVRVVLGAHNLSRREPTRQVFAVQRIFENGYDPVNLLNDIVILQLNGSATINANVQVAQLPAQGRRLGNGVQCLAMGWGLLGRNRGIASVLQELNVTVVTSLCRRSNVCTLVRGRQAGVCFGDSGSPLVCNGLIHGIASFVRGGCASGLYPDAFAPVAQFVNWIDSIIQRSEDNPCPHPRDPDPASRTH
Put plainly: Compound was evaluated for its inhibitory activity against elastase at 100 uM concentration of substrate.

The target of experiment [5] is Coagulation factor X (Homo sapiens) (UniProt P00742). The experiment can be described thus: Compound was evaluated for its inhibitory activity against Coagulation factor X at 100 uM concentration of substrate.

SMILES strings stand for the structures. Where a SMILES comes first, the peptide text is derived from it. [ ]: non-standard residue; d: D form. The star is where a group is joined. AMC = Cc1cc(=O)oc2cc(N*)ccc12; Cha = N[CH](CC1CCCCC1)C(=O)O; MeOSuc = COC(=O)CCC(=O)*; Orn = NCCC[C@H](N)C(=O)O; Cbz = O=C(OCc1ccccc1)*; Boc = CC(C)(C)OC(=O)*; Ms = CS(=O)(=O)*

Chain of Coagulation factor X (Homo sapiens) (P00742 41-179 limits assumed): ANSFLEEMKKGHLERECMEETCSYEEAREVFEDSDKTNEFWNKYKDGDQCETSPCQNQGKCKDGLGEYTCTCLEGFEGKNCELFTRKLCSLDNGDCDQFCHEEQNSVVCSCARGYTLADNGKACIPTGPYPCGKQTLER
Chain of Coagulation factor X (Homo sapiens) (P00742 235-488 limits assumed): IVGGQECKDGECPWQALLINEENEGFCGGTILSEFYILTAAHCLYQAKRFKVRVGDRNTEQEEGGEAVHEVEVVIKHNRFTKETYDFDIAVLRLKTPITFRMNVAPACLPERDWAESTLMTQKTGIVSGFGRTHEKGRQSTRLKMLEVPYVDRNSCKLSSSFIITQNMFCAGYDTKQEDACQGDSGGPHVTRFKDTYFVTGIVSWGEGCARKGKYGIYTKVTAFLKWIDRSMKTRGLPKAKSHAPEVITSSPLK

In turn, `CC(=O)N[C@@H](Cc1ccccc1)C(=O)N1CCC[C@H]1C(=O)NC(CCCN=C(N)N)C(=O)Nc1ccc2c(C)cc(=O)oc2c1` (stereo partly specified) came in with a Control in experiment [1] of 5.4%.
As for `CC(=O)N[C@@H](Cc1ccccc1)C(=O)N[C@@H](C)C(=O)N[C@@H](CCCN=C(N)N)C(=O)Nc1ccc2c(C)cc(=O)oc2c1` (Ac-Phe-Ala-Arg-{AMC}), the Control in experiment [2] is 2%.
`CC(=O)N[C@@H](Cc1ccccc1)C(=O)N[C@@H](CCCN=C(N)N)C(=O)N[C@@H](CCCN=C(N)N)C(=O)Nc1ccc2c(C)cc(=O)oc2c1` (Ac-Phe-Arg-Arg-{AMC}) returned a Control in experiment [3] of 46%.
Same read-out and setting: the value for `CC(=O)N[C@@H](Cc1ccccc1)C(=O)N[C@@H](CCCN=C(N)N)C(=O)N[C@@H](CCCCN)C(=O)Nc1ccc2c(C)cc(=O)oc2c1` (Ac-Phe-Arg-Lys-{AMC}) was 37%.
Take `CC(=O)N[C@@H](Cc1ccccc1)C(=O)N[C@@H](CCC(=O)O)C(=O)N[C@H](C(=O)Nc1ccc2c(C)cc(=O)oc2c1)C(C)C` (Ac-Phe-Glu-Val-{AMC}): in experiment [4], the Control is 1%.
`CC(=O)NC(Cc1ccccc1)C(=O)NCC(=O)NC(CCCN=C(N)N)C(=O)Nc1ccc2c(C)cc(=O)oc2c1` (stereo not drawn) (Ac-Phe-Gly-Arg-{AMC}; configuration not given here) came in with a Control in experiment [2] of 3.9%.
In experiment [3], `CC(=O)N[C@@H](Cc1ccccc1)C(=O)N[C@@H](CCCCN)C(=O)N[C@@H](CCCN=C(N)N)C(=O)Nc1ccc2c(C)cc(=O)oc2c1` (Ac-Phe-Lys-Arg-{AMC}) yielded a Control of 43%.
Still for that read-out and setting: with `CSCC[C@H](NC(=O)[C@H](Cc1ccccc1)NC(C)=O)C(=O)N[C@@H](CCCCN)C(=O)Nc1ccc2c(C)cc(=O)oc2c1` (Ac-Phe-Met-Lys-{AMC}) the figure was 18%.
`CC(=O)N[C@@H](Cc1ccccc1)C(=O)N1CCC[C@H]1C(=O)N[C@@H](C)C(=O)Nc1ccc2c(C)cc(=O)oc2c1` (Ac-Phe-Pro-Ala-{AMC}) yielded a Control in experiment [4] of 0.8%.
On to `CC(=O)N[C@@H](Cc1ccccc1)C(=O)N1CCC[C@H]1C(=O)N[C@H](C(=O)Nc1ccc2c(C)cc(=O)oc2c1)C(C)C` (Ac-Phe-Pro-Val-{AMC}), for which the Control in experiment [4] stood at 11%.
In experiment [2], `CC(=O)N[C@@H](Cc1ccccc1)C(=O)N[C@@H](CO)C(=O)N[C@@H](CCCN=C(N)N)C(=O)Nc1ccc2c(C)cc(=O)oc2c1` (Ac-Phe-Ser-Arg-{AMC}) came in with a Control of 4.2%.
The compound `CC(=O)N[C@@H](Cc1ccccc1)C(=O)N[C@H](C(=O)N[C@H](C(=O)Nc1ccc2c(C)cc(=O)oc2c1)C(C)C)[C@@H](C)O` (Ac-Phe-Thr-Val-{AMC}) registered a Control in experiment [4] of 1.6%.
As for `CC(=O)N[C@@H](Cc1ccccc1)C(=O)N[C@@H](Cc1ccc(O)cc1)C(=O)N[C@@H](CCCN=C(N)N)C(=O)Nc1ccc2c(C)cc(=O)oc2c1` (Ac-Phe-Tyr-Arg-{AMC}), the Control in experiment [5] stood at 1.1%.
As for `CC(=O)N[C@@H](Cc1ccccc1)C(=O)N[C@H](C(=O)N[C@@H](CCCCN)C(=O)Nc1ccc2c(C)cc(=O)oc2c1)C(C)C` (Ac-Phe-Val-Lys-{AMC}), in experiment [3], the Control was found to be 23%.
On the same count and under the same terms, with `CC(=O)N[C@@H](Cc1ccccc1)C(=O)N[C@@H](CCCN)C(=O)N[C@@H](CCCN=C(N)N)C(=O)Nc1ccc2c(C)cc(=O)oc2c1` (Ac-Phe-[Orn]-Arg-{AMC}) the figure was 18%; with `CC(=O)N[C@@H](Cc1ccccc1)C(=O)N[C@@H](CCCN)C(=O)N[C@@H](CCCCN)C(=O)Nc1ccc2c(C)cc(=O)oc2c1` (Ac-Phe-[Orn]-Lys-{AMC}), 21%.
Still for that read-out and setting: with `Cc1cc(=O)oc2cc(NC(=O)[C@H](CCCN=C(N)N)NC(=O)[C@H](CCCCN)NC(=O)[C@H](CC(C)C)NC(=O)OC(C)(C)C)ccc12` (Boc-Leu-Lys-Arg-{AMC}) the figure was 100%.
In turn, `Cc1cc(=O)oc2cc(NC(=O)[C@H](CCCN=C(N)N)NC(=O)[C@@H]3CCCN3C(=O)CNC(=O)OCc3ccccc3)ccc12` (Cbz-Gly-Pro-Arg-{AMC}) returned a Control in experiment [1] of 100%.
For `Cc1cc(=O)oc2cc(NC(=O)C(CCCN=C(N)N)NC(=O)CNC(=O)C(N)CCC(=O)O)ccc12` (stereo not drawn) (H-Glu-Gly-Arg-{AMC}; configuration not given here), the Control in experiment [2] was 100%.
As to `COC(=O)CCC(=O)N[C@@H](C)C(=O)N[C@@H](C)C(=O)N1CCC[C@H]1C(=O)N[C@H](C(=O)Nc1ccc2c(C)cc(=O)oc2c1)C(C)C` (MeOSuc-AAPV-{AMC}), in experiment [4], the Control was 100%.
Take `Cc1cc(=O)oc2cc(NC(=O)C(CCCN=C(N)N)NC(=O)CNC(=O)C(CC3CCCCC3)NS(C)(=O)=O)ccc12` (stereo not drawn) (Ms-[Cha]-Gly-Arg-{AMC}; configuration not given here): the Control in experiment [5] turned out to be 100%.
